Data on 3 molecules can be found in patent publication US9642922B2, “Caspase-triggered nano-aggregation probes and methods of use” (The Board of Trustees of the Leland Stanford Junior …, priority 2013, dated 2017).

Data set [1] concerns apoptotic cells. Briefly: Two-photon laser confocal microscopy of europium analogue in HeLa cells. The data set is classed as cell-based, human. Particulars: same conditions as probe 15 uptake.
The subject of data set [2] is HeLa tumor xenograft. Put plainly: Tumor size monitoring in HeLa xenograft chemotherapy model. Particulars: 3×DOX 8 mg/kg i.v. The data set is classed as in vivo, mouse. The method, then:
(§1) To establish tumors in 6-week-old female nu/nu mice, 2×10^6 HeLa cells suspended in 50 μL of a 50% v/v mixture of Matrigel in supplemented DMEM (10% FBS, 1% penstrep) were injected subcutaneously in the shoulders of the mouse. Tumors were grown until a single aspect was 0.7 to 0.9 cm (approximately 10-15 days), and then treatment consisting of 8 mg/kg DOX or saline was initiated. Treatments were administered intravenously once every 4 d for a total of three times. Total mouse body weight and tumor size (width and length by caliper) was measured every other day. Tumor volumes were calculated assuming ellipsoid shape with the formula (l×w^2)/2.

Data set [3] relates to caspase-3 activity. Put plainly: Caspase-3 level in Dox-treated HeLa cells. The conditions noted are these: Dox 2 μM, 24 h. The data set is classed as cell-based, human. The method, then: HeLa cells were incubated with different concentrations of doxorubicin (0, 1, 2 and 5 μM) and the cell/Tryp-LE solution was centrifuge at 11,750×g for 5 min, the supernatant was removed and 1 mL/g Riba buffer (Sigma) was added. The cells were left for 15 min on ice and homogenized with a sonicator (Bronson Sonifier 150) and the suspension was analyzed for Caspase-3 activity with a CASPASE-GLO® kit from Promega.
PET tracer 1 was applied to detect caspase-3 in apoptotic cells in vitro. HeLa cells were incubated with doxorubicin (Dox) (2 μM) for 24 h to induce apoptosis. […] Both Dox-treated and non-treated cells were then incubated with 1 for 4 h.

Data set [4] concerns caspase-3/7 activity. Put plainly: CASPASE-GLO 3/7 assay in saline- and 3×DOX-treated tumor lysates. The data set is classed as in vivo, mouse. The conditions noted are these: 3×DOX 8 mg/kg i.v. How it is done:
HeLa tumor xenografted mice were treated with saline or 3×DOX (8 mg/Kg). After treatment, the mice were sacrificed, and the tumors were resected and lysed with RIPA buffer (1 g tissue/1 ml buffer). The solution was homogenized for 1 min on ice, three times. The lysed solution was kept on ice for another 30 min, and centrifuged at 14,000×g for 30 min at 4° C. The supernatant was collected, and the protein concentration was measured using Bradford assay with BSA as standard. The caspase-3/7 activity in the lysed solution was measured by CASPASE-GLO® 3/7 assay, and normalized to the protein concentration.

Data set [5] relates to caspase-3 level. Put plainly: Caspase-3 level in DOX-treated HeLa tumors. The data set is classed as in vivo, mouse. Particulars: 0.2 mg DOX intratumoral, 4 days. The method, then: Mice were injected subcutaneously on the right shoulder with an estimated 1-2 million HeLa cells. The HeLa cells were allowed to establish a tumor xenograft and to grow to the size of 1 cm in diameter. A subset of the mice was treated with intratumoral injections of 0.2 mg (in 20 μL) doxorubicin. Four days later, the animals were killed, the tumors removed and quickly frozen using dry ice. The following day, tumors were cut into small pieces, weighted and 1 mL/g Riba buffer was added. They were kept on ice for 30 min and then homogenized with a sonicator (Bronson Sonifier 150). The lysed tumor solutions were centrifuged at 11,750×g for 15 min at 4° C. The supernatant was analyzed for caspase-3 activity using the CASPASE-GLO® kit (Promega) and for protein concentration using the standard BSA absorption assay.

Data set [6] concerns apoptotic HeLa cells. Put plainly: Epifluorescence microscopy of apoptotic HeLa cells labeled with probes. The data set is classed as cell-based, human. The conditions noted are these: microscopy, 2 μM probe. How it is done:
After removal of the medium, the cells were incubated with C-SNAF, L-ctrl, or D-ctrl at 2 μM for 24 h. Some cells were first incubated with caspase inhibitor (Z-VAD-fmk, 50 μM) for 30 min, followed by incubating with 2 μM C-SNAF for 24 h. The cells were carefully washed with PBS (1×) three times, and stained with Hoechst 33342 (2 μM) at 37° C. for 30 min. After rinses with PBS (1×) several times, the medium was replaced and the fluorescence images were acquired with DAPI and Cy5.5 filters. The images were processed using the standard CRi Nuance software, analyzed using Image J software package (NIH), and presented at the same intensity scale for comparison.
HeLa cells in #1.5 borosilicate 8-well chambered coverslips (Nunc) were either incubated with C-SNAF (2 μM) alone or co-incubated with DOX (1, 2, and 5 μM) and 2 μM C-SNAF, 2 μM C-SNAF together with caspase inhibitor (Z-VAD-fmk, 50 μM), or control probes D-ctrl and L-ctrl at 2 μM for 24 h. Then the medium was removed, the cells were carefully washed with PBS (1×) three times, and stained with nuclear binding probe Hoechst 33342 (2 μM) at 37° C. for 30 min. After several rinses with PBS (1×), the medium was replaced and the fluorescence images were acquired with DAPI and […] filters.

The subject of data set [7] is subcutaneous HeLa tumors. Briefly: In vivo fluorescence imaging of DOX-treated HeLa tumor-bearing mice. The arrangement: species or system mouse. How it is done:
C-SNAF or either of the control probes (5 nmol) was administered intravenously to tumor-bearing mice and whole animal fluorescence was longitudinally monitored using a Maestro fluorescence imager.
as §1
Two days following the final treatment, 5 nmol probe in saline was injected intravenously and fluorescence imaging began immediately on a Maestro hyperspectral fluorescent imaging system (PerkinElmer, Mass., USA) using a 635±25 nm excitation filter and a 675 nm long-pass emission filter, with images acquired from 670 to 900 nm. Tissue autofluorescence and Cy5.5 fluorescence were deconvolved, and tumor fluorescence intensity was quantified by region of interest measurement using Nuance v.3.0.1.2 software (Perkin Elmer, Mass., USA).

The target of data set [8] is T1, caspase-3 (Homo sapiens, UniProt P42574).
T1 sequence (P42574 29-175 limits assumed): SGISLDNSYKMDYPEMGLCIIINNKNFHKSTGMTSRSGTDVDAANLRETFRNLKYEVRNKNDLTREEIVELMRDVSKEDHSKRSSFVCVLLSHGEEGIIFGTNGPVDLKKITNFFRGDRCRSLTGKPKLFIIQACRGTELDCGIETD
T1 sequence (P42574 176-277 limits assumed): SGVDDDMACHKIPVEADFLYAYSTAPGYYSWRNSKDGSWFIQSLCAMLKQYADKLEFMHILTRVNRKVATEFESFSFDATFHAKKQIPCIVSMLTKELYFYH
Put plainly: HPLC assay of caspase-3-triggered macrocyclization of C-SNAF. The arrangement: purchased Sigma; host or cells: E. coli. Particulars: same conditions as C-SNAF; D-ctrl after 24 h. The data set is classed as biochemical. The method, then: The progression of caspase-3-triggered macrocyclization of C-SNAF to form C-SNAF-cycl in solution was monitored using high-performance liquid chromatography (HPLC) following incubation of the probe (25 μM) with recombinant human caspase-3 (4.9×10^−[…]).
Caspase (human, recombinant from E. coli) assays were performed for caspase-3 (4.9×10^−3 U; 7.35×10^−4 mg, Sigma), −7 (18.3 U; 7.35×10^−4 mg, Calbiochem), and −9 (0.3 U; 7.35×10^−4 mg, Calbiochem). All caspase assays were conducted in caspase buffer with 50 mM HEPES, 100 mM NaCl, 1 mM EDTA, 10 mM TCEP, 10% glycerol, and 0.1% CHAPS at pH 7.4. Cathepsin B (human liver; 0.27 U; 7.35×10^−4 mg, Calbiochem) and Legumain (human, recombinant from mouse myeloma cell line; >250 pmol/min/μg; 7.35×10^−4 mg, R&D Systems) were conducted in reaction buffer with 50 mM sodium acetate, 50 mM NaCl, 0.5 mM EDTA and 10 mM TCEP at pH 5.5. C-SNAF was diluted in the respective enzyme reaction buffer (25 μM, 1 mL) and remained at room temperature for 10 min, to which was then added the respective enzymes. Reactions were performed at 37° C., and monitored by HPLC hourly. The percentage conversion of the reaction was calculated based on the percentage of peak area of C-SNAF-cycl in the HPLC trace at 675 nm UV detection, which indicated the efficacy of enzyme cleavage of C-SNAF.

The subject of data set [9] is STS-induced apoptotic HeLa cells. Briefly: Flow cytometry of STS-induced apoptotic HeLa cells labeled with probes. The data set is classed as cell-based, human. The conditions noted are these: 2 μM probe, compared with C-SNAF. The method, then:
Approximately 10^5 HeLa cells in 1 mL DMEM medium were seeded onto 12-well plates. […] For the inhibitor blocking experiment, the STS-treated cells were first incubated with the caspase inhibitor Z-VAD-fmk (50 μM, R&D Systems) for 30 min, and then 2 μM C-SNAF was added. All cells incubations were 24 h, followed by staining with FLICA (FAM) after trypsinization. After washing with PBS (1×) three times, the cell pellets were resuspended in 300 μL PBS and applied for flow cytometry analysis using the FITC and Cy5.5 channels. The cell number for each flow cytometry analysis was approximately 5000 to 10000, and the data was processed using FlowJo software.
(In general: A flow cytometer gives signals particle by particle.)

For data set [10] the following is noted: mouse, in vivo, iv.

Numbered stars: 1 amine (or outer) side, 2 acyl side, 3 side chain; on linkers, the order of the positions; unused ones are H or OH. Square brackets hold non-standard residues; d marks the D form. Peptide text beside a SMILES is read from it. * marks the point of attachment. DOTA = O=C(O)CN1CCN(CC(=O)O)CCN(CC(=O)*)CCN(CC(=O)O)CC1; X1 = O=C(C1CSC(c2nc3ccc(N[*:1])cc3s2)=N1)[*:2]; X2 = N#Cc1ccc2cc(OCCCN*)ccc2n1; SEt = CCS*

With `CCSSCC(NC(=O)C(CC(=O)O)NC(=O)C(NC(=O)C(CCC(=O)O)NC(=O)C(CC(=O)O)NC(C)=O)C(C)C)C(=O)NC(CCCCNC(=O)CN1CCN(CC(=O)[O-])CCN(CC(=O)[O-])CCN(CC(=O)[O-])CC1)C(=O)Nc1ccc2nc(C3=NC(C(=O)NCCCOc4ccc5nc(C#N)ccc5c4)CS3)sc2c1.[Eu+3]` (stereo not drawn) [1-Eu^3+ (16)] (Ac-DEVDC(SEt)K(DOTA)[X1]-X2; configuration not given here), the “fluorescent signal in apoptotic cells” value in data set [1] was “strong fluorescent signal in apoptotic cells”.
Take `COc1cccc2c1C(=O)c1c(O)c3c(c(O)c1C2=O)C[C@@](O)(C(=O)CO)C[C@@H]3O[C@H]1C[C@H](N)[C@H](O)[C@H](C)O1` [DOX, doxorubicin]: the “tumor growth rate relative to saline” value in data set [2] is recorded as “significant decrease in tumor growth rates”. The “caspase-3 activity of lysates of treated versus non-treated cells” value in [3] came to 9.5 fold. For the same molecule, the “increase in caspase-3/7 activity in tumor lysates versus saline” value in data set [4] was “approximately 2 fold”. For the same molecule, in [5], the “increase of caspase-3 level in treated tumors” value turned out to be 1.9 fold.
`CC[N+]1=C(C=CC=CC=C2N(CCCCCC(=O)NCCCCC(NC(=O)C(CSC)NC(=O)C(CC(=O)O)NC(=O)C(NC(=O)C(CCC(=O)O)NC(=O)C(CC(=O)O)NC(C)=O)C(C)C)C(=O)Nc3ccc4nc(C5=NC(C(=O)NCCCOc6ccc7ncccc7c6)CS5)sc4c3)c3ccc4c(S(=O)(=O)O)cc(S(=O)(=O)O)cc4c3C2(C)C)C(C)(C)c2c1ccc1c(S(=O)(=O)O)cc(S(=O)(=O)[O-])cc21` [L-ctrl]: in [6], the “fluorescence of apoptotic cells compared to C-SNAF” value is “relatively weaker fluorescence”. For the same molecule, in data set [7] (3×DOX-treated mice, 1 h after probe), the “correlation (r) of maximum tumor fluorescence with maximum tumor size change” value is listed as “no significant correlation”. Also, in data set [7] (4 h after probe administration), the “average signal enhancement between DOX- and saline-treated tumors” value worked out at 0.24%. Further, the “tumor fluorescence lower than that of C-SNAF” value in data set [7] (DOX-treated mice, 1 h) is recorded as 18%. The “products observed after incubation with caspase-3” value in data set [8] was “only the caspase-3-mediated DEVD-cleavage hydrolysis product”. Also, in data set [9], the “fluorescent intensity of apoptotic cells incubated with control probes” value is given as “much lower fluorescent intensity”. The same molecule registered a blood half-life in [10] of 30 ± 16.8 min.
